Experiments:
[1] = system: P. gingivalis adherence to streptococci (S. gordonii DL-1); assay: Inhibition of P. gingivalis adherence to streptococci, two species biofilm culture model (confocal microscopy); assay type: cell-based; conditions: for inhibition of P. gingivalis adherence, dose dependence: tested at final concentrations of 5, 20 or 60 μM, 24 hrs anaerobic incubation; for P. gingivalis adherence to streptococci at 5 μM: 5 μM compound; for P. gingivalis adherence to streptococci at 20 μM: 20 μM compound
Procedure: Compounds 25, 27a, 34, 35 and 42 were tested to determine if they inhibited P. gingivalis adherence to streptococci using a two species biofilm culture model. Compounds of the invention (e.g. compounds of formula I) can also be tested using this method. A mid-exponential phase culture of S. gordonii DL-1 was harvested by centrifugation and the cells were suspended in phosphate buffered saline (PBS) at a density of 10^9 cfu/ml. A 1 ml aliquot was labeled with hexidium iodide (30 μM) for 15 minutes with gentle shaking. After washing three times with PBS, streptococci were suspended in growth medium and 100 μl was added to a 12 well microtiter plate (Grace Bio-Labs) and incubated anaerobically for 24 hrs.
P. gingivalis cells from an exponential culture were washed with PBS and labeled by reacting with 4 μg/ml carboxyfluorescein-succinyl ester for 30 minutes at 4° C. After washing three times with PBS, the cells were suspended in PBS at a density of 2×10^7 cfu/ml. The test compounds were dissolved in absolute ethanol to a final concentration of 30 mM and each was diluted into 100 μl P. gingivalis to final concentrations of 5, 20 or 60 μM and incubated for 30 minutes. After removal of unbound streptococci from the micotiter plate, P. gingivalis samples were then added to each well and incubated anaerobically for 24 hrs. A control well contained P. gingivalis that was pre-incubated with PBS alone.
Adherence of P. gingivalis to streptococci was analyzed using confocal laser scanning microscopy on an Olympus FluoView 500 inverted confocal microscope. Image stacks were acquired using Olympus FluoView software and rendered into 3 dimensional projections using Volocity Image Analysis software, where S. gordonii is depicted in red and P. gingivalis is shown in green/yellow. […] Compound 46 reduced P. gingivalis adherence to streptococci by 25% at 25 μM and by approximately 60% at 50 μM.

P. gingivalis = assay: Modified Baker mouse model of periodontitis (S. gordonii then P. gingivalis infection), alveolar bone loss; assay type: in vivo, Balb/cByJ mice; conditions: mice infected with S. gordonii and 10^7 cfu P. gingivalis; peptide added to the inoculum
Description: FIG. 6. Alveolar bone loss induced in Balb/cByJ mice in the presence and absence of BAR peptide. Sham infected animals were inoculated with CMC slurry without bacteria.
To determine how effectively the inhibitors limit or prevent P. gingivalis colonization in vivo, a modified Baker mouse model of periodontitis is used. The model is modified by first infecting with and establishing S. gordonii in the oral cavity of Balb/cByJ mice then subsequently challenging with P. gingivalis. In the presence of S. gordonii, a persistent infection of P. gingivalis (detected by 16S rDNA PCR 47 days post infection) can be established using an inoculum of 10^7 cfu. […] Thus, preventing P. gingivalis colonization of mice reduces alveolar bone loss.

[2] = system: P. gingivalis biofilms on streptococci; assay: Inhibition/disruption of P. gingivalis biofilms on streptococci by AgI/II-derived peptide; assay type: cell-based
Procedure: The plate assays above allow a quick examination of the kinetics of Mfa binding and inhibition of bacterial adherence. To determine if the Mfa-catalyzed compounds selected above inhibit the formation of P. gingivalis biofilms, or alternatively are capable of disrupting a pre-existing biofilm, dual species P. gingivalis-S. gordonii biofilms are grown and analyzed as previously described by Daep et al. (Daep, C. A., James, D. M., Lamont, R. J. and Demuth, D. R. 2006. Structural Characterization of Peptide-Mediated Inhibition of P. gingivalis Biofilm Formation. Infect. Immun. 74: 5756-5762; Daep, C. A., Lamont R. J. and Demuth, D. R. 2008. Interaction of P. gingivalis with oral streptococci requires a motif that resembles the eukaryotic nuclear receptor box protein-protein interaction domain. Infect. Immun. 76:3272-3280) using an open flow biofilm culture system. To determine if the inhibitors are capable of disrupting existing P. gingivalis-streptococcal biofilms, pre-formed biofilms are incubated with medium containing the inhibitor and analyzed as above. The inhibitors identified from the assays above are analyzed for in vivo efficacy in preventing P. gingivalis colonization in a mouse model of periodontitis.

In the case of `c1ccc(-c2nc(-c3ccccc3)c(-c3ccccc3)o2)cc1` [Compound 27a], the “P. gingivalis adherence to streptococci at a concentration of 60” value ([1]; concentration of 60 (unit not given)) is reported as “completely blocked adherence” and the “inhibition of P. gingivalis adherence, dose dependence” value [1] is reported as “dose dependent inhibition”.
In the case of `[N-]=[N+]=Nc1ccc(-c2nc(-c3ccccc3)c(-c3ccccc3)o2)cc1` [Compound 34, 2-(4-azidophenyl)-4,5-diphenyloxazole], the “P. gingivalis adherence to streptococci at 5 μM” value [1] is reported as “significantly reduced” and the “P. gingivalis adherence to streptococci at 20 μM” value [1] is reported as “completely blocked adherence”.
For `CC(C)CNc1nc(NCC(C)C)nc(-c2ccccc2)n1` [Compound 46, N^2,N^4-Diisobutyl-6-phenyl-1,3,5-triazine-2,4-diamine], the “reduction of P. gingivalis adherence to streptococci at 25 μM” value ([1]; 25 μM compound) was 25% and the “reduction of P. gingivalis adherence to streptococci at 50 μM” value ([1]; 50 μM compound) was “approximately 60%”.
`[N-]=[N+]=NCc1nc(-c2ccccc2)c(-c2ccccc2)o1` [Compound 42, 2-(Azidomethyl)-4,5-diphenyloxazole] was tested, and the “P. gingivalis adherence to streptococci at 20 μM” value [1] was “completely inhibited adherence” and the “inhibition of P. gingivalis adherence, dose dependence” value [1] was “dose dependent inhibition”.
“LEAAPKKVQDLLKKANITVKGAFQLFS [BAR peptide]” was tested, and the alveolar bone loss (P. gingivalis) was “reduced to near sham infected levels”, the “inhibition of P. gingivalis adherence and formation of biofilms on streptococcal substrates” value [2] was “potently inhibits” and the “disruption of existing P. gingivalis biofilms” value ([2]; pre-existing biofilms) was “capable of disrupting existing P. gingivalis biofilms”. For the same molecule, the IC50 ([2]; read-out: I50, inhibition of development of P. gingivalis biofilms on streptococci) was 1.3 µM.
For `[N-]=[N+]=Nc1cccc(-c2nc(-c3ccccc3)c(-c3ccccc3)o2)c1` [Compound 35, 2-(3-azidophenyl)-4,5-diphenyloxazole], the “P. gingivalis adherence to streptococci at 20 μM” value [1] was “significantly reduced adherence” and the “P. gingivalis adherence to streptococci at 60 μM” value ([1]; 60 μM compound) was “completely blocked”.
For `Cc1nc(-c2ccccc2)c(-c2ccccc2)o1` [Compound 25, 2-Methyl-4,5-diphenyloxazole], the “P. gingivalis adherence to streptococci at 5 μM” value [1] was “completely inhibited”.

— US9167820B2, “Anti-biofilm compounds” (priority 2011, dated 2015)
